Data taken from patent publication US7662782B2, “Melanocortin 1 receptor selective compounds” (Action Pharma A/S, priority 1998, dated 2010).
Square brackets hold non-standard residues; d marks the D form. Ends that are not written are not given here. Peptide text beside a SMILES is read from it.

Assays:
human MC3-receptor = target: T1, human MC3-receptor (Homo sapiens, UniProt P41968); assay: Competition for [125I]NDP-MSH binding to recombinant human MC3-receptor in COS cells; conditions: for Ki: [125I]NDP-MSH competition, transfected COS cells
T1 construct: expressed in transfected cells; host or cells: COS (COS-1) cells, transient, 48 h
Procedure: (§1) Expression of receptor clones. Human MC1- and MC5-receptor DNAs (Chhajlani and Wikberg 1992; Chhajlani et al., 1993), cloned into the expression vector pRc/CMV (InVitrogen Corp., USA), and human MC3- and human MC4-receptor DNAs (Gantz et al., 1993a & b), cloned into the expression vector pCMV/neo, were used. COS cells were grown and transfected with receptor clones as described (Schiöbth et al. 1995, 1996b). After transfection cells were cultivated for 48 h, detached from the Petri dishes, and used for radioligand binding as described (Schiöth et al. 1995, 1996b).
(§2) Binding studies. […] The competition data were analyzed by fitting it to the logistic function using non-linear regression analysis. The Ki-values were then calculated from the thus obtained IC50-values by using the Cheng and Prusoff equation, essentially as described by Schiöth et al. 1995, 1996b.

human MC4-receptor = target: T2, human MC4-receptor (Homo sapiens, UniProt P32245); assay: Competition for [125I]NDP-MSH binding to recombinant human MC4-receptor in COS cells; conditions: for Ki: [125I]NDP-MSH competition, transfected COS cells
T2 construct: expressed in transfected cells; host or cells: COS (COS-1) cells, transient, 48 h
Procedure: as §1, §2

human MC5-receptor = target: T3, human MC5-receptor (Homo sapiens, UniProt P33032); assay: Competition for [125I]NDP-MSH binding to recombinant human MC5-receptor in COS cells; conditions: for Ki: [125I]NDP-MSH competition, transfected COS cells
T3 construct: expressed in transfected cells; host or cells: COS (COS-1) cells, transient, 48 h
Procedure: as §1, §2

mouse B16 melanoma cells = assay: Stimulation of cAMP-formation in mouse B16 melanoma cells; assay type: cell-based; conditions: FIG. 3; both peptides at similar potencies and efficacies
Procedure: B16 mouse melanoma cells (B16-F1; CRL-6323, American Type Culture Collection, 12301 Parklawn Drive, Rockville, Md., 20852), were cultured in Dulbecco's modified Eagle medium (DMEM; Gibco BRA Gaithersburg, USA, cat no. 041-01966H) supplemented with 10% heat-inactivated fetal bovine serum, 100 IU penicillin/mL and 100 μg streptomycin/mL at 37° C. in a humidified atmosphere of 95% air and 5% CO2. Cells grown in monolayers were detached from 60-80% confluent adherent cultures using Hank's balanced salts containing 0.5 mM EDTA and collected by low speed centrifugation (700×g).
The cells were incubated for 30 min at 37° C. in DMEM containing 0.5 mM of the phosphodiesterase inhibitor 3-isobutyl-1-methyl-xanthine (IBMX). 20 μL aliquots of appropriate dilutions of test compounds in growth medium were prepared in 96 well microtitre plates The plates were then placed in a water bath at 37° C. and about 1.5×10^5 cells in 180 μL were quickly added to each well to obtain immediate mixing. […]
After completion of the incubations the solutions were rapidly filtered onto GF-B glassfibre filters (Whatman), followed by rapid washing of filters with 2 ml ice-cold washing buffer (50 mM Tris-Cl, pH 7.4). […] Radioactivity was counted using a β-counter. Cell experiments were determined in quadruplicates and standard curves in duplicates.

[1] = system: mouse RAW 264.7 macrophage cells; assay: Stimulation of cAMP-formation in mouse RAW 264.7 macrophage cells; assay type: cell-based; conditions: FIG. 5; both peptides at similar potencies and efficacies
Procedure: RAW 264.7 cells were grown as described in Example 6. cAMP was determined essentially as described in Example 5.

[2] = system: mouse RAW 264.7 macrophage cells; assay: Inhibition of nitric oxide production in LPS/interferon gamma stimulated RAW 264.7 cells; assay type: cell-based; conditions: FIG. 6; 100 ng/mL LPS + 5 units/mL interferon gamma, 16 h; potencies and efficacies similar to α-MSH
Procedure: RAW 264.7 cells (TIB-71), obtained from American Type Culture Collection, 12301 Parklawn Drive, Rockville, Md., 20852, USA, and cultured in Dulbecco's modified Eagle medium (Gibco, BRL) supplemented with 10% heat-inactivated fetal bovine serum, 100 IU penicillin/ml and 100 μg streptomycin/ml at 37° C. in a humidified atmosphere of 95% air and 5% CO2. Cells grown in monolayers were detached from the culture flasks and collected by low speed centrifugation (700×g). […]
Nitric oxide was measured by monitoring the nitrite production essentially using the method of Wishnok et al. (Methods in Enzymology, 1996, 268, 130-151). In brief 50 μL of culture medium was mixed with 50 μL Griess reagent (i.e. a 1:1 mixture of 0.1% N-naphthylethylenediamine dihydrochloride and 1% sulfanilamide in 5% (v/v) phosphoric acid) and after 10 min the absorption was measured at 540 nm. The nitrite concentrations were calculated from a standard curve constructed, by instead of culture medium, adding 50 μL of between 3 to 100 μM of NaNO2 to the assays.

BALB/C mice = assay: DNFB contact hypersensitivity in BALB/C mice (paw oedema, blood cell counts); assay type: in vivo, mouse; conditions: for inhibition of paw oedema: daily, vs DNFB animals not given MS05
Procedure: Marked positive treatment effects were found upon administration of MS05 to BALB/C mice. Animals were sensitized by injection of 2,4-dinitrofluorobenzene (DNFB). First 30 μL of 0.5% DNFB was administered to the shaved abdomen of the mice and after 4 days 10 μL of 0.3% DNFB was challenged to one paw, another paw being unchallenged and serving as a control. MS05 was administered, using a solution of MS05 in 0.9% saline, intraperitonally two hours before sensitization, and then the same dose was given intra-peritonally for four consecutive days, each dose of MS05 amounting to 0.05, 0.25, 0.37, 0.5 and 0.75 mg/kg. […] Therefore the compound of the invention is in a further sense immunomodulatory.

[3] = system: human microvascular endothelial cells (HMEC-1 cells); assay: TNF α induced adhesion molecule expression in HMEC-1 cells; assay type: cell-based; conditions: TNF α 10 ng/mL
Procedure: In further tests the MS05 or MS09 was administered to human microvascular endothelial cells (HMEC-1 cells; Department of Health & Human Services, Centres for Disease Control and Prevention, Atlanta, Ga. 30333, USA) in vitro. […] In this context by ICAM-1 is intended intercellular adhesion molecule type 1, by VCAM is intended vascular adhesion molecule, and by E-Selectin is intended endothelial selectin (Sluiter et al, J. Cardiovasc. Pharmacol. 1993, 22 Suppl 4: S37-44, Elangbam et al., Vet. Pathol. 1997 Jan. 34(1): 61-73).

human MC1-receptor [4] = target: T4, human MC1-receptor (Homo sapiens, UniProt Q01726); assay: Stimulation of cAMP formation in B16G4F cells stably expressing human MC1-receptors; assay type: cell-based; set-up: expressed in transfected cells; conditions: for Fold stimulation of cAMP: vs untreated control cells, mean ± SD of 3 experiments
Procedure: Human MC1-receptors had been cloned earlier into pZeoSV (Invitrogen) (Szardenings et al., 1997). The resulting vectors were used for transformation of the amelanotic mouse melanoma cell line B16G4F that lacks the mouse MC1-receptors (Solca et al., 1993) using liposomes (Campbell, 1995) as described previously (Schiöth et al., 1997b). Cells were cultivated in Dulbecco's modified Eagle's medium with 10% fetal calf serum at 7% CO2 for 24 hours and seeded on large plates in the same medium containing 300 μg/ml Zeocin. The medium was exchanged every 4-5 days until cell foci appeared. Single foci were isolated and grown under antibiotic selection.
For cAMP measurements the cells were detached from 60-80% confluent adherent cultures using Hank's balanced salts containing 0.5 mM EDTA and incubated for 30-60 min at 37° C. in ordinary growth medium containing 0.5 mM of the phosphodiesterase inhibitor 3-isobutyl-1-methyl-xanthine (IBMX). 20 μl aliquots of appropriate dilutions of test compounds in growth medium were prepared in 96 well microtitre plates and placed in a water bath at 37° C. For the stimulation about 1.5×10^5 cells in 180 μl were quickly added to each well to obtain immediate mixing. After 20 min 20 μl of 4.4 M perchloric acid were added, mixed, neutralized after a few minutes by addition of 20 μl base (5 M KOH, 1 M Tris) and centrifuged.
20 μl of acid treated supernatant obtained above were mixed with 50 μl buffer (100 mM Tris-Cl, 250 mM NaCl, 10 mM EDTA, 0.1% mercaptoethanol, 0.5 mM IBMX, pH=7.4) containing 0.01 μCi [^3H]cAMP (Amersham, 1.04 TBq/mmol, 1 μCi/μl, product no.: TRK304). 200 μl of the same buffer containing a 1:16 diluted porcine adrenal gland bark extract (prepared as described by Nordstedt and Fredholm, 1990) were added and the microtitre plates were incubated for at least 2 hours at 4° C. A standard curve was prepared in the same manner with dilutions of cAMP covering the range 2 μM -0.5 nM.
After completion of incubation the solutions were filtered over GF-B glassfibre filters (Whatman) and washed briefly with ca. 2 ml ice-cold washing buffer (50 mM Tris-Cl, pH=7.4). Radioactivity on the filters was measured after-addition of scintillation liquid. Stimulation experiments were determined in quadruplicates and standard curves in duplicates.

human MC1-receptor [5] = target: T4, human MC1-receptor; assay: Competition for [125I]NDP-MSH binding to recombinant human MC1-receptor in COS cells; set-up: expressed in transfected cells; host or cells: COS (COS-1) cells, transient, 48 h; conditions: [125I]NDP-MSH competition, transfected COS cells
Procedure: as §1, §2

[6] = intraperitoneal, best effect at 0.5 mg/kg daily

T3 sequence (P33032 whole entry): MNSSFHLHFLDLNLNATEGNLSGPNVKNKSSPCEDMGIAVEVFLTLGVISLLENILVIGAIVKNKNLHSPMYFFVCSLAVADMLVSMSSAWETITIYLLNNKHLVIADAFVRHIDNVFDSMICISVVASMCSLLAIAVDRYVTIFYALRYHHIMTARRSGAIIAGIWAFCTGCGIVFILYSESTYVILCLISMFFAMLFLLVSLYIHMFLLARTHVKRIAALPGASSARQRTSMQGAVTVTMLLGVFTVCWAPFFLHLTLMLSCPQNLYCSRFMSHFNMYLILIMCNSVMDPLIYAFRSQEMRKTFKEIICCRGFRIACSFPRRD
T2 sequence (P32245 whole entry): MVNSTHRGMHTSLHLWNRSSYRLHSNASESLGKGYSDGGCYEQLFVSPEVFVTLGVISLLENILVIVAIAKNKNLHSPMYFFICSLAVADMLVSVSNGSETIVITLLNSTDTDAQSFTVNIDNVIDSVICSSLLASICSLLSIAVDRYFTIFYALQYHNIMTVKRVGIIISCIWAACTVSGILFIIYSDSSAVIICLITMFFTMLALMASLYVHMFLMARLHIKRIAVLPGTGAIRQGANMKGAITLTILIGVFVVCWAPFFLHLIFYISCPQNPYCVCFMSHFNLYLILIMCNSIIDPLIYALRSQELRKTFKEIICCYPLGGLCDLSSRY
T4 sequence (Q01726 whole entry): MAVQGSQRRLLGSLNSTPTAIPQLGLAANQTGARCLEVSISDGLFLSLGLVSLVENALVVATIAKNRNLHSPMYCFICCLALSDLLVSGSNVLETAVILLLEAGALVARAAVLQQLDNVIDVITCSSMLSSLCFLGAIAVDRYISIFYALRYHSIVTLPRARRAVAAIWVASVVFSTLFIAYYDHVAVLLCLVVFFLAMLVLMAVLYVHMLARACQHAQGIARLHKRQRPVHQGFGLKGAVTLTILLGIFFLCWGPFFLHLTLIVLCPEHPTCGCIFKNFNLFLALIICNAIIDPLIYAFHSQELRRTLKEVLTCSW
T1 sequence (P41968 whole entry): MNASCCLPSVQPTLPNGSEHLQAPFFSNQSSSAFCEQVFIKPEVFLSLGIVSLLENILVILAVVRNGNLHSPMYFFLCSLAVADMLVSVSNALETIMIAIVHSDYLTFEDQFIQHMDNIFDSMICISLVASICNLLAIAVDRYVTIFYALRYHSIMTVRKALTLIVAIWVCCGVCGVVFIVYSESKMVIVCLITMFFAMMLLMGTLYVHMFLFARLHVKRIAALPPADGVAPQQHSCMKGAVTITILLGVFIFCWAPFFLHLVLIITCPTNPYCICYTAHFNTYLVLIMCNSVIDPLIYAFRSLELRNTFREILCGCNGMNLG

**Q.** With “SSIISHFRWGKPV-NH2 [MS05, L-seryl-L-seryl-L-Isoleucyl-L-isoleucyl-L-seryl -L-histidyl-L-phenylalanyl-L-arginyl-L-tryptophanyl-glycyl-L-lysyl-L-prolyl-L-valinamide]” as the molecule, how does the Ki (human MC3-receptor) read?
**A.** 1360 nM

**Q.** And the “fold lower affinity for the MC3 receptor than for the MC1-receptor” value (human MC3-receptor; ratio of Ki values)?
**A.** 1800 fold

**Q.** What about the Ki (human MC4-receptor) of the same molecule?
**A.** > 50000 nM

**Q.** And the “fold lower affinity for the MC4 receptor than for the MC1-receptor” value (human MC4-receptor; ratio of Ki values)?
**A.** more than 65000 fold

**Q.** And the Ki (human MC5-receptor)?
**A.** > 50000 nM

**Q.** What about the “fold lower affinity for the MC5 receptor than for the MC1-receptor” value (human MC5-receptor; ratio of Ki values) of the same molecule?
**A.** more than 65000 fold

**Q.** And the “effect on cAMP levels in mouse B16 melanoma cells” value (mouse B16 melanoma cells)?
**A.** marked increase in cAMP

**Q.** What about the “effect on cAMP levels in mouse RAW 264.7 cells” value [1] of the same molecule?
**A.** marked increase in cAMP

**Q.** And the “inhibition of NO-production” value [2]?
**A.** strong dose dependent inhibition

**Q.** And the “inhibition of paw oedema” value (BALB/C mice; 0.05 mg/kg intraperitoneal)?
**A.** 3%

**Q.** And the “inhibition of paw oedema” value (BALB/C mice; 0.25 mg/kg intraperitoneal)?
**A.** 5%

**Q.** And the “inhibition of paw oedema” value (BALB/C mice; 0.37 mg/kg intraperitoneal)?
**A.** 12%

**Q.** And the “inhibition of paw oedema” value (BALB/C mice; 0.5 mg/kg intraperitoneal)?
**A.** 39%

**Q.** And the “inhibition of paw oedema” value (BALB/C mice; 0.75 mg/kg intraperitoneal)?
**A.** 10%

**Q.** And the “DNFB induced increase in blood platelet counts” value (BALB/C mice; intraperitoneal)?
**A.** returned towards the normal

**Q.** And the “DNFB induced increase in count of lymphocytes/monocytes in the blood” value (BALB/C mice; intraperitoneal)?
**A.** essentially returned to normal levels

**Q.** What about the “DNFB induced increase in granulocyte counts of the blood” value (BALB/C mice; [6]) of the same molecule?
**A.** essentially normalized

**Q.** What about the “DNFB induced increase in total white cell blood counts” value (BALB/C mice; [6]) of the same molecule?
**A.** essentially normalized

**Q.** What about the “TNF α upregulated expression of mRNA for ICAM-1, VCAM and E-Selectin” value [3] of the same molecule?
**A.** inhibition of the upregulated expression of mRNA

**Q.** What about the “TNF α upregulation of the ICAM-1, VCAM and E-Selectin proteins” value [3] of the same molecule?
**A.** inhibition of the upregulation

**Q.** And the “% of 10 nM α-MSH (cAMP stimulation)” value (human MC1-receptor [4]; 10 nM compound)?
**A.** 69%

**Q.** And the “Fold stimulation of cAMP” value (human MC1-receptor [4]; 10 nM compound)?
**A.** 4.6 ± 0.3 fold

**Q.** And the “Fold stimulation of cAMP” value (human MC1-receptor [4]; 1 μM compound)?
**A.** 6.7 ± 0.3 fold

**Q.** And the Ki (human MC1-receptor [5])?
**A.** 0.76 nM

**Q.** Which Ki (human MC3-receptor) does the source give for `CC[C@H](C)[C@H](NC(=O)[C@H](CO)NC(=O)[C@@H](N)CO)C(=O)N[C@H](C(=O)N[C@@H](CO)C(=O)N[C@@H](Cc1c[nH]cn1)C(=O)N[C@H](Cc1ccccc1)C(=O)N[C@@H](CCCNC(=N)N)C(=O)N[C@@H](Cc1c[nH]c2ccccc12)C(=O)NCC(=O)N[C@@H](CCCCN)C(=O)N1CCC[C@H]1C(=O)N[C@H](C(N)=O)C(C)C)[C@@H](C)CC` [MS09, Ser-Ser-Ile-Ile-Ser-His-dPhe-Arg-Trp-Gly-Lys-Pro-Val-NH2] (H-SSIISH[dF]RWGKPV-NH2) here?
**A.** 7 nM

**Q.** And the Ki (human MC4-receptor)?
**A.** 40 nM

**Q.** And the Ki (human MC5-receptor)?
**A.** 120 nM

**Q.** What about the “% of 10 nM α-MSH (cAMP stimulation)” value (human MC1-receptor [4]; 10 nM compound) of the same molecule?
**A.** 89%

**Q.** What about the Ki (human MC1-receptor [5]) of the same molecule?
**A.** 0.2 nM
